Results taken from US8163909B2, “Substituted hydroxyethyl amine compounds as beta-secretase modulators and methods of use” (Amgen Inc., priority 2007, dated 2012).
Like-named read-outs stand apart in the source and are kept apart here.

Legend:
[1] = molecular target: Beta Secretase enzyme (BACE) (Homo sapiens, UniProt P56817); test: In vitro enzymatic BACE FRET (fluorescence resonance energy transfer) assay; assay type: biochemical;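 further: fluorescence read after 1 h with 50 nM quenched peptide substrate spanning the BACE cleavage site, in pH 4.2 acetate buffer containing 10% DMSO and nonionic detergent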
Beta Secretase enzyme (BACE), sequence (P56817 46-501): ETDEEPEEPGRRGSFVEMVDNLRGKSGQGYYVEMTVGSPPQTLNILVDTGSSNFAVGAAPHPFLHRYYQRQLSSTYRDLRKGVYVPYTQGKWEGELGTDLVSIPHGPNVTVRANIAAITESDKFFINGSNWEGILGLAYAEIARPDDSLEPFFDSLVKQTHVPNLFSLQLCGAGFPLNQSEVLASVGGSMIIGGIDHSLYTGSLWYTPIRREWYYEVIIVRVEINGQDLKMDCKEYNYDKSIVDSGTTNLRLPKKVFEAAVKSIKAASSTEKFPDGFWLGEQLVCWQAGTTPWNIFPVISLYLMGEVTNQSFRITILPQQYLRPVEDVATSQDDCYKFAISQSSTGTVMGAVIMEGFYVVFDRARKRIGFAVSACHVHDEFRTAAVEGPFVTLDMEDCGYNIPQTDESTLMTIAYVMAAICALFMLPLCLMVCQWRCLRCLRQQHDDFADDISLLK

[2] = test system: Aβ40 in conditioned medium of cells stably expressing Amyloid Precursor Protein (APP); test: In vitro BACE cell-based assay (Aβ40 in conditioned medium, sandwich ELISA); conditions: Homo sapiens;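 further: compounds added as a dilution series, secreted peptide quantified by europium time-resolved fluorescence readout, potency fitted from percent of control versus compound concentration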
[3] = test system: Abeta peptide; test: In vivo inhibition of beta-secretase (reduction of Abeta peptide in brain and cerebrospinal fluid); parameters: species or system rat; conditions: Rattus norvegicus, po, 4 h, orally administered at 30 mg/kg dose, measured after 4 hours;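 further: abeta peptide quantified by sandwich ELISA with electrochemiluminescence readout in rat brain supernatant or CSF, relative to vehicle-dosed control animals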
[4] = molecular target: CYP3A4 (CYP3A) (Homo sapiens, UniProt P08684); test: in vitro; conditions: microsomes, pH 7.4;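 further: inhibition of CYP3A-mediated 1-hydroxymidazolam formation after 10 min incubation with NADPH, quantified by HPLC MS relative to metabolite produced without test compound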
CYP3A4 (CYP3A), sequence (P08684 2-503): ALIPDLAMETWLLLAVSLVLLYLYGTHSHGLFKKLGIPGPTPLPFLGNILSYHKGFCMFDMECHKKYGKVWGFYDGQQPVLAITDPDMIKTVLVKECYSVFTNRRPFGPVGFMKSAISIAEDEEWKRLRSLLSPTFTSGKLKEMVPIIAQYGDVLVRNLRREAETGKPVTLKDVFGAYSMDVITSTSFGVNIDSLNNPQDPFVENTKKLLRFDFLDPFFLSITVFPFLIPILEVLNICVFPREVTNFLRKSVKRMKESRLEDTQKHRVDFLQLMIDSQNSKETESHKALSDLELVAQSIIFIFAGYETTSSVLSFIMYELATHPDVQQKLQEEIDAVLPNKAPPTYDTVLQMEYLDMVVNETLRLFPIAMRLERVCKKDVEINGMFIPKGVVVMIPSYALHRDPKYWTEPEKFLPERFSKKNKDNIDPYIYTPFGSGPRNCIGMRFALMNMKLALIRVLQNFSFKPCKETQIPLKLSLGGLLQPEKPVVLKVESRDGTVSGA

[5] = Microsomal stability assay, rat liver microsomes;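 further: rat liver microsomes (0.25 mg/mL) with about 1 µM compound plus 1 mM NADPH, pH 7.4, 37 °C for 30 min, parent left measured by LC-MS/MS against 0 min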
[6] = Microsomal stability assay, human liver microsomes;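 further: pooled human liver microsomes at 0.25 mg/mL with 1 µM compound and NADPH at 37 °C, pH 7.4, for 30 min, unchanged parent quantified by LC-MS/MS against the 0 min sample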
[7] = molecular target: CYP2D6 (Homo sapiens, UniProt P10635); test: CYP2D6 inhibition assay (bufuralol, pooled human liver microsomes)
CYP2D6, sequence (P10635 whole entry): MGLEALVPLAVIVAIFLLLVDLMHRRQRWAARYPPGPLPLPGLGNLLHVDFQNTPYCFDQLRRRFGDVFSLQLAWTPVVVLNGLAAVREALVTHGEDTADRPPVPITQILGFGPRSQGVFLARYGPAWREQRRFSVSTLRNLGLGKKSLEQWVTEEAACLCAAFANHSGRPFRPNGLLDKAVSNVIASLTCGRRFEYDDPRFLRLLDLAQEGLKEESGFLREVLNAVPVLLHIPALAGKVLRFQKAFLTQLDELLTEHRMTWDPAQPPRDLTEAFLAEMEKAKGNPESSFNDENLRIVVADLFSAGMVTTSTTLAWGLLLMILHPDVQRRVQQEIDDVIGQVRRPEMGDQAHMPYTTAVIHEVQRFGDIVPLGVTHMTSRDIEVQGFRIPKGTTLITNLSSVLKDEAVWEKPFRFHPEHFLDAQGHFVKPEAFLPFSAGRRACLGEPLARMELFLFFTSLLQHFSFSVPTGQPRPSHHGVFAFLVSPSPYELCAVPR

[8] = BACE enzyme assay, read-out: BACE1 FRET assay
[9] = HEK293, HEK cells, read-out: HEK cell assay
[10] = rat cerebrospinal fluid, read-out: percent reduction of abeta peptide in the cerebrospinal fluid of the rat
[11] = 2D6 IC50 (uM), CYP enzyme inhibition
[12] = BACE enzyme assay IC50, read-out: BACE1 FRET assay
[13] = HEK293, HEK cell-based assay IC50, read-out: HEK cell assay
[14] = 2D6 IC50 (uM), CYP2D6 inhibition
[15] = BACE enzyme assay, IC50's in uM, read-out: BACE1 FRET assay
[16] = HEK293, cell-based assay, HEK cells, IC50's in uM, read-out: HEK cell assay
[17] = 2D6 IC50, CYP enzyme inhibition
[18] = HEK293, HEK cell-based assay, IC50's in uM, read-out: HEK cell assay
[19] = rat brain, read-out: percent reduction of abeta peptide in the brain of the rat
[20] = read-out: BACE1 FRET assay (IC50)
[21] = HEK293, HEK cells, read-out: HEK cell assay (IC50)

SMILES	IC50 [1, 8] [µM]	IC50 [2, 9] [µM]	inhibition in vivo at 30 mg/kg [3, 10] [%]	IC50 [4] [nM]	RLM ([5]; rat liver microsomal data) [µL/min/mg]	HLM ([6]; human liver microsomal data) [µL/min/mg]	IC50 [7, 11] [µM]	IC50 [1, 12] [µM]	IC50 [2, 13] [µM]	RLM ([5]; rat liver microsomes) [µL/min/mg]	HLM ([6]; human liver microsomes) [µL/min/mg]	IC50 [7, 14] [µM]	IC50 [1, 15] [µM]	IC50 [2, 16] [µM]	IC50 [7, 17] [µM]	IC50 [2, 18] [µM]	inhibition in vivo at 30 mg/kg [3, 19] [%]	IC50 [1, 20] [µM]	IC50 [2, 21] [µM]	IC50 ([7]; 2D6 IC50, CYP2D6 inhibition) [µM]
CC(C)(C)Cc1cnc2c(c1)[C@@H](NC[C@@H](O)[C@H](Cc1ccc3c(c1)OCO3)NC(=O)[C@H]1CCO1)CC1(CCC1)O2 [Example 516, (2R)-N-((1S,2R)-1-(1,3-benzodioxol-5-ylmethyl)-3-(((4′S)-6′-(2,2-dimethylpropyl)-3′,4′-dihydrospiro[cyclobutane-1,2′-pyrano[2,3-b]pyridin]-4′-yl)amino)-2-hydroxypropyl)-2-oxetanecarboxamide]	0.018	0.02	10 to 80	100	94	31	3.3													
COCC(=O)N[C@@H](Cc1ccc(-c2nccs2)c(F)c1)[C@H](O)CN[C@H]1CC2(CCC2)Oc2ncc(CC(C)(C)C)cc21 [Example 730]			10 to 80	≤ 30				0.039	0.027	74	57	0.7								
CC(=O)N[C@@H](Cc1ccccc1)[C@H](O)CN[C@H]1CC2(CCC2)Oc2c1cc(CC(C)(C)C)nc2-c1ccncc1 [Example 542]	0.024	0.103	10 to 80	200	193	36	≥ 27													
COCC(=O)N[C@@H](Cc1cccc(F)c1)[C@H](O)CN[C@H]1CC2(CCC2)Oc2c(-c3ccncc3)cc(CC(C)(C)C)cc21 [Example 535]	0.009	0.006	10 to 80	100	79	49	2.5													
C#Cc1ccc(F)c(C[C@H](NC(=O)[C@@H](C)OC)[C@H](O)CN[C@H]2CC3(CCC3)Oc3ncc(CC(C)(C)C)cc32)c1 [Example 902]			10 to 80	100	70	36							0.006	0.026	0.9					
C#Cc1cccc(C[C@H](NC(=O)C(OC)OC)[C@H](O)CN[C@H]2CC3(CCC3)Oc3ncc(CC(C)(C)C)cc32)c1 [Example 844]			≥ 50	100	44	32	1.5						0.005			0.006				
CC(=O)N[C@@H](Cc1ccc(-c2nccs2)cc1)[C@H](O)CN[C@H]1CC2(CCC2)Oc2ncc(CC(C)(C)C)cc21 [Example 677]			10 to 80	100				0.015	0.028	52	57	1					5 to 80			
C#Cc1cc(C[C@H](NC(=O)COCC)[C@H](O)CN[C@H]2CC3(CCC3)Oc3ncc(CC(C)(C)C)cc32)ccc1F [Example 837]			10 to 80	100	72	29	1.6						0.007			0.023				
CC(=O)N[C@@H](Cc1cccc(-c2nccs2)c1)[C@H](O)CN[C@H]1CC2(CCC2)Oc2ccc(CC(C)(C)C)cc21 [Example 641, N-((1S,2R)-3-(((4S)-6-(2,2-dimethylpropyl)-3,4-dihydrospiro[chromene-2,1′-cyclobutan]-4-yl)amino)-2-hydroxy-1-(3-(1,3-thiazol-2-yl)benzyl)propyl)acetamide]			10 to 80	700						165	102							0.006	0.029	0.3
COCC(=O)N[C@@H](Cc1cc(F)cc(F)c1)[C@H](O)CN[C@H]1CC2(CCC2)Oc2c1cc(CC(C)(C)C)nc2-c1nccn1C [Example 596]			10 to 80	100						39	26							0.041	0.009	2.9
COC(OC)C(=O)N[C@@H](Cc1cccc(-c2ncco2)c1)[C@H](O)CN[C@H]1CC2(CCC2)Oc2ncc(CC(C)(C)C)cc21 [Example 826, N-((1S,2R)-3-(((4′S)-6′-(2,2-dimethylpropyl)-3′,4′-dihydrospiro[cyclobutane-1,2′-pyrano[2,3-b]pyridin]-4′-yl)amino)-2-hydroxy-1-(3-(1,3-oxazol-2-yl)benzyl)propyl)-2,2-dimethoxyacetamide]			10 to 80	200	55	66	0.9						0.012			0.013	5 to 80			
CC(=O)N[C@@H](Cc1cc(F)cc(F)c1)[C@H](O)CN[C@H]1CC2(CCC2)Oc2c(-c3ccncc3)cc(CC(C)C)cc21 [Example 673]			10 to 80	≤ 30				0.009	0.005	118	46	0.8								
CNc1nc(CC(C)(C)C)cc2c1OC1(CCC1)C[C@@H]2NC[C@@H](O)[C@H](Cc1cc(F)cc(-c2nccs2)c1)NC(=O)COC [Example 847]			≥ 50	400	201	102							0.044	0.01	0.8		5 to 80			
CO[C@H](C)C(=O)N[C@@H](Cc1ccc2c(c1)OCO2)[C@H](O)CN[C@H]1CC2(CCC2)Oc2ncc([C@@H]3CC3(C)C)cc21 [Example 578]				100						185	36						5 to 80	0.018	0.019	2
CO[C@H](C)C(=O)N[C@@H](Cc1cccc(-c2ncco2)c1)[C@H](O)CN[C@H]1CC2(CCC2)Oc2ncc(CC(C)(C)C)cc21 [Example 836, (2R)-N-((1S,2R)-3-(((4′S)-6′-(2,2-dimethylpropyl)-3′,4′-dihydrospiro[cyclobutane-1,2′-pyrano[2,3-b]pyridin]-4′-yl)amino)-2-hydroxy-1-(3-(1,3-oxazol-2-yl)benzyl)propyl)-2-methoxypropanamide]			10 to 80	200	56	56	0.7						0.013			0.015				
CC(C)(C)Cc1cnc2c(c1)[C@@H](NC[C@@H](O)[C@H](Cc1cc(F)cc(-c3nccs3)c1)NC(=O)C1CCC1)CC1(CCC1)O2 [Example 875]				200	81	65							0.006	0.02	0.3		5 to 80			
COCC(=O)N[C@@H](Cc1ccc(F)cc1)[C@H](O)CN[C@H]1CC(C)(C)Oc2c1cc(CC(C)C)c1c2OCO1 [Example 747]			10 to 80	200				0.209	0.243	217	125	9.1								
CO[C@H](C)C(=O)N[C@@H](Cc1cc(F)cc(F)c1)[C@H](O)CN[C@H]1CC2(CCC2)Oc2c1cc(CC(C)C)nc2-c1cncn1C [Example 710]			10 to 80	100				0.026	0.018	39	16	2.8								
CO[C@H](C)C(=O)N[C@@H](Cc1cccc(-c2nccs2)c1)[C@H](O)CN[C@H]1CC2(CCC2)Oc2ncc(CC(C)(C)F)cc21 [Example 831, (2R)-N-((1S,2R)-3-(((4′S)-6′-(2-fluoro-2-methylpropyl)-3′,4′-dihydrospiro[cyclobutane-1,2′-pyrano[2,3-b]pyridin]-4′-yl)amino)-2-hydroxy-1-(3-(1,3-thiazol-2-yl)benzyl)propyl)-2-methoxypropanamide]			10 to 80	200	45	21	0.8						0.024			0.047				
COC(OC)C(=O)N[C@@H](Cc1ccc2c(c1)OCO2)[C@H](O)CN[C@H]1CC2(CCC2)Oc2ncc(CC(C)(C)C)cc21 [Example 523, N-((1S,2R)-1-(1,3-benzodioxol-5-ylmethyl)-3-(((4′S)-6′-(2,2-dimethylpropyl)-3′,4′-dihydrospiro[cyclobutane-1,2′-pyrano[2,3-b]pyridin]-4′-yl)amino)-2-hydroxypropyl)-2,2-dimethoxyacetamide]	0.019	0.033	10 to 80	100	94	37	5.4										5 to 80			
